Measured values: PubChem BioAssay AID1963868 (Molecular Pharmacology Branch, DTP, NCI, 2024)
Values joined by “and” are separate entries in the source; they are usually repeats but may differ in a detail not shown here. Equal values may be shown once.

Tested on: KRAS PDC tumor spheroids (HUVEC+MSC), viability
Test: Anticancer human tumor 254851-301-R-J1-PDC patient-derived colon carcinoma cell line growth inhibition [KRAS2]
Details: for viability, T/C: stronger effect = lower value
Text: Multicellular complex tumor spheroid response to RAS pathway inhibitors in combination with a targeted agents in patient-derived cell lines with oncogenic KRAS variants from multiple cancer types
A high-throughput screen of multi-cell type tumor spheroids was designed to identify active combinations of targeted small molecules and KRAS pathway inhibitors. Complex spheroids include a stromal component modeled by human endothelial cells (HUVEC) and fibroblasts modeled by human mesenchymal stem cells (MSCs). The concentration ranges selected for each drug and investigational agent were based upon clinically achievable concentrations if the clinical Cmax of the agent was known.
Compounds. The drugs and investigational agents: BI-3406 (NSC825286), BAY-293 (NSC824723), batoprotafib (TNO155; NSC825523), sotorasib (AMG 510; NSC818433), MRTX1257 (NSC819558), elimusertib (BAY 1895344; NSC800525), molibresib (GSK525762; NSC774829), temuterkib (LY3214996; NSC803410), venetoclax (NSC766270), alisertib (NSC759677), olaparib (NSC753686), talazoparib (NSC767125), erdafitinib (NSC781556), ipatasertib (NSC767898), cabozantinib (NSC761068), nintedanib (NSC756659), abemaciclib (NSC768073), docetaxel (NSC628503), trametinib (NSC758246), and sapanisertib (NSC764658) were obtained from the National Cancer Institute (NCI) Developmental Therapeutics Program Chemical Repository. The FDA-approved anticancer drug set is available from the Developmental Therapeutics Program. […] The stock solutions were prepared in dimethyl sulfoxide (DMSO, Sigma-Aldrich, St. Louis, MO, cat. D2650) at 800-fold the tested concentration and stored at -70 degrees C prior to their use. All drugs and investigational agents were tested over a range starting from a high concentration at or near the clinical Cmax and decreasing in half-log increments. If the clinical Cmax for an agent had not been determined, the highest concentration tested was 10 microM.
Cell Culture. All cells were maintained in an incubator at 37 degrees C and 5% CO2 with 95% humidity. The PDC lines were cultured according to standard operating procedures established by the NCI PDMR (https://pdmr.cancer.gov/sops/default.htm). Briefly, all PDCs were thawed and cultured in Matrigel-coated flasks prepared with a working solution of 1X Ham's F-12 nutrient mix, without supplementation (Invitrogen, Waltham, MA, cat. 11765054), 100 U/mL penicillin-streptomycin (Invitrogen, cat. 15140122), and 2.5% Matrigel (Corning Inc., Corning, NY, cat. 354248) for the first three passages. All PDCs were cultured in complete DMEM/F-12 media containing advanced DMEM/F-12 (Invitrogen, cat. 12634028), 4.9% defined fetal bovine serum, heat inactivated (HyClone Laboratories Inc., Logan, UT, cat. SH30070.03HI), 389 ng/mL hydrocortisone (Sigma-Aldrich, cat. H4001), 9.7 ng/mL human EGF recombinant protein (Invitrogen, cat. PHG0313), 23.4 microg/mL adenine (Sigma-Aldrich, cat. A2786), 97.3 U/mL penicillin-streptomycin (Invitrogen, cat. 15140122), 1.9 mM L-glutamine (Invitrogen, cat. 25030081), and 9.7 microM Y-27632 dihydrochloride (Tocris Bioscience, Bristol, United Kingdom, cat. 1254). The PDCs were cultured in complete DMEM/F12 media without 9.7 microM Y-27632 dihydrochloride for at least two passages prior to the screen. The established cell line HOP-62 was cultured in RPMI 1640 medium, HEPES (Invitrogen, cat. 22400105) with 10% defined fetal bovine serum (HyClone Laboratories Inc., cat. SH30070.03) and 2 mM L-glutamine (Invitrogen, cat. 25030081). The pooled donor HUVEC were cultured in endothelial cell growth medium 2 (PromoCell, Heidelberg, Germany, cat. C-22011) and the hMSC were cultured in mesenchymal stem cell growth medium 2 (PromoCell, cat. C-28009). For all experiments, HUVEC and hMSC were used at passages </=5, while the malignant cell lines were used at passages </=15. […]
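Also: spheroids exposed to compounds for seven days before readout.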
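For viability, T/C in this document: 100% = DMSO vehicle control luminescence of the spheroids.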

C=CC(=O)N1CCN(c2nc(=O)n(-c3c(C)ccnc3C(C)C)c3nc(-c4c(O)cccc4F)c(F)cc23)C(C)C1 (centres undefined)
viability, T/C (compound 0.1 µM): 100% [middle of 17 runs]
IC50 (compound alone, run of 07/12/2021): > 10 µM
IC50 (compound alone, run of 07/19/2021): > 10 µM
IC50 (compound alone, run of 07/26/2021): > 10 µM

CCNC(=O)CC1N=C(c2ccc(Cl)cc2)c2cc(OC)ccc2-n2c(C)nnc21 (centres undefined)
viability, T/C (compound 0.0316 µM): 110% [middle of 5 runs]
viability, T/C (compound 0.1 µM): 100% [middle of 5 runs]
viability, T/C (compound 0.316 µM): 90.8% [middle of 5 runs]
viability, T/C (compound 1 µM): 88.9% [middle of 5 runs]
IC50 (curve of compound): > 10 µM and 4.98 µM

CCNC(=O)CC1N=C(c2ccc(Cl)cc2)c2cc(OC)ccc2-n2c(C)nnc21 (centres undefined) + CC1OCC2(CCN(c3cnc(Sc4ccnc(N)c4Cl)c(N)n3)CC2)C1N
IC50 (curve of first compound, second compound 0.1 µM): > 10 µM
IC50 (curve of first compound, second compound 0.316 µM): > 10 µM
IC50 (curve of first compound, second compound 1 µM): > 10 µM
IC50 (curve of first compound, second compound 3.16 µM): 5.86 µM
IC50 (curve of first compound, second compound 10 µM): > 10 µM
viability, T/C (second compound 0.1 µM, first compound 0.0316 µM): 111%
viability, T/C (second compound 0.1 µM, first compound 0.1 µM): 103%
viability, T/C (second compound 0.1 µM, first compound 0.316 µM): 99.9%
viability, T/C (second compound 0.1 µM, first compound 1 µM): 95.6%
viability, T/C (second compound 0.1 µM, first compound 3.16 µM): 94.9%
viability, T/C (second compound 0.1 µM, first compound 10 µM): 77.2%
viability, T/C (second compound 0.316 µM, first compound 0.0316 µM): 94.2%
viability, T/C (second compound 0.316 µM, first compound 0.1 µM): 108%
viability, T/C (second compound 0.316 µM, first compound 0.316 µM): 81.9%
viability, T/C (second compound 0.316 µM, first compound 1 µM): 89.5%
viability, T/C (second compound 0.316 µM, first compound 3.16 µM): 77.8%
viability, T/C (second compound 0.316 µM, first compound 10 µM): 68.5%
viability, T/C (second compound 1 µM, first compound 0.0316 µM): 84.8%
viability, T/C (second compound 1 µM, first compound 0.1 µM): 83.3%
viability, T/C (second compound 1 µM, first compound 0.316 µM): 93.1%
viability, T/C (second compound 1 µM, first compound 1 µM): 73.9%
viability, T/C (second compound 1 µM, first compound 3.16 µM): 86.1%
viability, T/C (second compound 1 µM, first compound 10 µM): 65.6%
viability, T/C (second compound 3.16 µM, first compound 0.0316 µM): 73%
viability, T/C (second compound 3.16 µM, first compound 0.1 µM): 69.3%
viability, T/C (second compound 3.16 µM, first compound 0.316 µM): 73%
viability, T/C (second compound 3.16 µM, first compound 1 µM): 67%
viability, T/C (second compound 3.16 µM, first compound 3.16 µM): 58.9%
viability, T/C (second compound 3.16 µM, first compound 10 µM): 42%
viability, T/C (second compound 10 µM, first compound 0.0316 µM): 70.5%
viability, T/C (second compound 10 µM, first compound 0.1 µM): 67.4%
viability, T/C (second compound 10 µM, first compound 0.316 µM): 57.8%
viability, T/C (second compound 10 µM, first compound 1 µM): 56.5%
viability, T/C (second compound 10 µM, first compound 3.16 µM): 56.5%
viability, T/C (second compound 10 µM, first compound 10 µM): 50.5%
